Assay results reported in US11793774B2, “Chiral beta-hydroxyethylamines and their use in the treatment of hyperglycemia” (ATROGI AB, priority 2017, dated 2023).

How the values were obtained:
[1] = system: L6-myotubes; assay: Glucose uptake (3H-2-deoxy-glucose) in differentiated L6-myotubes; format: cell-based; settings: agonist final concentration 1×10^−5, 3H-2-deoxy-glucose uptake, relative to isoproterenol
Procedure: L6-myoblasts were grown in Dulbecco's Modified Eagle's Medium (DMEM) containing 4.5 g/l glucose supplemented with 10% fetal bovine serum, 2 mM L-Glutamine, 50 U/ml penicillin, 50 μg/ml streptomycin and 10 mM HEPES. Cells were plated at 1×10^5 cells per ml in 24-well plates. After reaching 90% confluence the cells were grown in medium containing 2% FBS for 7 days where upon cells differentiated into myotubes. Differentiated L6-myotubes were serum-starved over night in medium containing 0.5% fatty-acid free BSA and stimulated with agonist, final concentration 1×10^−5. After 1 h 40 min cells were washed with warm, glucose free medium or PBS and another portion of agonist was added to glucose free medium. After 20 min the cells were exposed to 50 nM ^3H-2-deoxy-glucose for another 10 min before washed in ice cold glucose free medium or PBS and lysed in 0.2 M NaOH for 1 h in 60° C.

[2] = system: Intracellular cAMP levels; assay: Measurement of intracellular cAMP levels in differentiated cells (alpha screen cAMP kit); format: cell-based; settings: agonist final concentration 1×10^−5, 15 min, 1 mM IBMX, relative to isoproterenol
Procedure: L6-myoblasts were grown in Dulbecco's Modified Eagle's Medium (DMEM) containing 4.5 g/l glucose supplemented with 10% fetal bovine serum, 2 mM L-Glutamine, 50 U/ml penicillin, 50 μg/ml streptomycin and 10 mM HEPES. Cells were plated at 1×10^5 cells per ml in 24-well plates. After reaching 90% confluence the cells were grown in medium containing 2% FBS for 7 days where upon cells differentiated into myotubes.
Differentiated cells were serum-starved over night and stimulated with agonist, final concentration 1×10^−5, for 15 min in stimulation buffer (HBSS supplemented with 1% BSA, 5 mM HEPES and 1 mM IBMX, pH 7.4) The medium was then aspirated and to end the reaction 100 μL of 95% EtOH was added to each well of a 24-well plate and cells were kept in −20° C. over night. The EtOH was let to evaporate and 500 μL of lysis buffer (1% BSA, 5 mM HEPES and 0.3% Tween-20, pH 7.4) was added to each well before put in −80° C. for 30 min and then kept in −20° C. Intracellular cAMP levels were detected using an alpha screen cAMP kit (6760635D from Perkin Elmer). The activity for each compound is compared to that of isoproterenol.

Row | SMILES | Biological example 1: glucose uptake activity compared to that of isoproterenol [1] | Biological example 2: intracellular cAMP activity compared to that of isoproterenol [2]
1 | CCC[C@@H](C)NC[C@H](O)c1ccc(F)cc1 [Example 5, (R)-1-(4-Fluorophenyl)-2-(((R)-pentan-2-yl)amino)ethan-1-ol] | ++ (between 75 and 50%) | − (less than 25%)
2 | CCC[C@@H](C)NC[C@H](O)c1ccc(O)cc1 [Example 2, 4-((R)-1-Hydroxy-2-(((R)-pentan-2-yl)amino)ethyl)phenol Hemisulphate] | ++ (between 75 and 50%) | + (between 50 and 25%)
3 | CCC[C@@H](C)NC[C@H](O)c1cccc(F)c1 [Example 6, (R)-1-(3-fluorophenyl)-2-(((R)-pentan-2-yl)amino)ethan-1-ol] | ++ (between 75 and 50%) | − (less than 25%)
4 | CCC[C@@H](C)NC[C@H](O)c1cccc(O)c1 [Example 4, 3-((R)-1-Hydroxy-2-(((R)-pentan-2-yl)amino)ethyl)phenol Hemisulphate] | +++ (activity of more than 75% of that of isoproterenol) | ++ (between 75 and 50%)
